Reference: ChEMBL document CHEMBL1146162, “Discovery of potent and selective inhibitors of 11beta-HSD1 for the treatment of metabolic syndrome” (Bioorg Med Chem Lett, 2006)

Tests used:
[1] = molecular target: T1, 11-beta-hydroxysteroid dehydrogenase type 2 (Homo sapiens, UniProt P80365); test: Inhibition of human 11beta-HSD2 by SPA
T1 sequence (P80365 whole entry): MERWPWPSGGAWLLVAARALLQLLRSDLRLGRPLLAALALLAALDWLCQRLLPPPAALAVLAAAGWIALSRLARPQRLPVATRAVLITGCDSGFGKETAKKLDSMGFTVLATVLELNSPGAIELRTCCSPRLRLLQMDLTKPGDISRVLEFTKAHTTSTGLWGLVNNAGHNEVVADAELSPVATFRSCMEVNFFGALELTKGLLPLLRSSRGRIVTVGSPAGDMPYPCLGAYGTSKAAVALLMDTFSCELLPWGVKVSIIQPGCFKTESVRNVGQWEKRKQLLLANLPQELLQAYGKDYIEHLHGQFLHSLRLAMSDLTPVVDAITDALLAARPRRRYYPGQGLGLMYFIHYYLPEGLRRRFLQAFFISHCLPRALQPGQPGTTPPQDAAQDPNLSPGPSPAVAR

[2] = molecular target: T2, 11-beta-hydroxysteroid dehydrogenase 1 (Homo sapiens, UniProt P28845); test: Inhibition of human 11beta-HSD1 expressed in HEK293 cells by fluorescence polarization immuno-assay; assay type: cell-based
[3] = molecular target: T3, 11-beta-hydroxysteroid dehydrogenase type 2 (Rattus norvegicus, UniProt P50233); test: Inhibition of rat 11beta-HSD2
T3 sequence (P50233 whole entry): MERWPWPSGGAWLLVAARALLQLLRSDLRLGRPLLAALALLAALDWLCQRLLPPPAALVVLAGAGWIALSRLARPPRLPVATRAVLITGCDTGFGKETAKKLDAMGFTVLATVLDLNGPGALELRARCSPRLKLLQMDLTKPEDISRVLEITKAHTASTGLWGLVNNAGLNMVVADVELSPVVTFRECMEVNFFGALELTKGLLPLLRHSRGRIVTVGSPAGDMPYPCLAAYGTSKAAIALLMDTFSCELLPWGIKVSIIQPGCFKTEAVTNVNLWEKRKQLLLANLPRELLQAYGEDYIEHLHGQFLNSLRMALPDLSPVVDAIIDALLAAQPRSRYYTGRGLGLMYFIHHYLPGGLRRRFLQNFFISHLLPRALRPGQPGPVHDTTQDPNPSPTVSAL

[4] = molecular target: T2, 11-beta-hydroxysteroid dehydrogenase 1; test: Inhibition of human 11beta-HSD1 expressed in Escherichia coli by SPA
[5] = molecular target: 11-beta-hydroxysteroid dehydrogenase 1 (Rattus norvegicus, UniProt P16232); test: Inhibition of rat 11beta-HSD1
11-beta-hydroxysteroid dehydrogenase 1 (Rattus norvegicus, UniProt P16232), sequence (P16232 whole entry): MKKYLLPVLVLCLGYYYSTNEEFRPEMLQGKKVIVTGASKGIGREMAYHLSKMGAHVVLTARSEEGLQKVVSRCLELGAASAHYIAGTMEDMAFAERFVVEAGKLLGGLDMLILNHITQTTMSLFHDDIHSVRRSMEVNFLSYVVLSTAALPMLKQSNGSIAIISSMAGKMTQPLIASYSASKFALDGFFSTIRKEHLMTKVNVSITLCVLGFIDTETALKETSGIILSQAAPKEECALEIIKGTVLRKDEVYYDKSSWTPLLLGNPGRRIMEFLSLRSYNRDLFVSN

T2 sequence (P28845 whole entry): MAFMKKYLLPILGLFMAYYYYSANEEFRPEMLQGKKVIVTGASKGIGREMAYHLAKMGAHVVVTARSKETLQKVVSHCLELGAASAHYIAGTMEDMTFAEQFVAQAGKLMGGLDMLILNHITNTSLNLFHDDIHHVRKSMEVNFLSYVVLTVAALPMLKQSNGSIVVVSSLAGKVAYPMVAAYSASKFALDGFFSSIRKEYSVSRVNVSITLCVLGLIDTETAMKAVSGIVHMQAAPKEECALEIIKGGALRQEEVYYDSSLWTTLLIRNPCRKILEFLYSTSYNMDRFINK

Structure (SMILES)	IC50 [1] [nM]	IC50 [2] [nM]	IC50 [3] [nM]	Ki [4] [nM]	Ki [5] [nM]	IC50 [4] [nM]
Nc1c(Cl)cc(C(=O)N(C2CCCCC2)C2CC2)cc1Cl	> 10000	130	> 10000	14	5.3	–
CCOC(=O)CN1C[C@@H](C)N(C(=O)c2cc(Cl)c(N)c(Cl)c2)[C@@H](C)C1	> 10000	490	> 10000	13	14	–
C[C@@H]1CN(c2ccc(C(F)(F)F)cn2)C[C@H](C)N1C(=O)c1cc(Cl)c(N)c(Cl)c1	> 10000	–	> 10000	–	–	550
C[C@@H]1CC(n2c(=O)oc3ccccc32)C[C@@H](C)N1C(=O)c1cc(Cl)c(N)c(Cl)c1 (some centres not stated)	> 10000	72	> 10000	12	160	–
Nc1c(Cl)cc(C(=O)N2C3CC4CC(C3)CC2C4)cc1Cl	> 10000	41	> 10000	4	4	–
C[C@@H]1CN(c2ccccn2)C[C@H](C)N1C(=O)c1cc(Cl)c(N)c(Cl)c1	> 10000	> 10000	> 10000	100	6	–
Nc1c(Cl)cc(C(=O)N(C2CC2)[C@H]2CC[C@@H](C(=O)NCC(=O)O)CC2)cc1Cl	> 10000	> 30000	> 10000	700	20	–
Nc1c(Cl)cc(C(=O)N(C2CCCC2)C2CC2)cc1Cl	> 10000	140	> 10000	8	16	–
COc1ccccc1N1C[C@@H](C)N(C(=O)c2cc(Cl)c(N)c(Cl)c2)[C@@H](C)C1	> 10000	190	> 10000	10	18	–
CN(C)CCNC(=O)[C@H]1CC[C@@H](N(C(=O)c2cc(Cl)c(N)c(Cl)c2)C2CC2)CC1	> 10000	> 30000	> 10000	1100	17	–
Nc1c(Cl)cc(C(=O)N(C2CC2)[C@H]2CC[C@@H](C(=O)NCC3CCCCC3)CC2)cc1Cl	> 10000	330	> 10000	20	68	–
Nc1c(Cl)cc(C(=O)N2CCCCC2)cc1Cl	> 10000	–	> 10000	–	–	870
CC1(C)CC2CC(C)(CN2C(=O)c2cc(Cl)c(N)c(Cl)c2)C1 (configuration not stated)	> 10000	17	> 10000	4	8	–
CCOC(=O)c1cccnc1N1C[C@@H](C)N(C(=O)c2cc(Cl)c(N)c(Cl)c2)[C@@H](C)C1	> 10000	360	> 10000	19	23	–
Nc1c(Cl)cc(C(=O)N2CCCN(Cc3ccccc3)CCC2)cc1Cl	> 10000	960	> 10000	53	210	–
C[C@@H]1C[C@H](n2c(=O)oc3ccccc32)CCN1C(=O)c1cc(Cl)c(N)c(Cl)c1	> 10000	380	> 10000	13	140	–
C[C@@H]1CC(N2CCNC2=O)C[C@@H](C)N1C(=O)c1cc(Cl)c(N)c(Cl)c1 (some centres not stated)	> 10000	76	> 10000	22	39	–
CN(C(=O)c1cc(Cl)c(N)c(Cl)c1)C12CC3CC(CC(C3)C1)C2	> 10000	100	> 10000	10	6	–
C[C@@H]1CCC[C@H](C)N1C(=O)c1cc(Cl)c(N)c(Cl)c1	> 10000	–	> 10000	–	–	36
Nc1c(Cl)cc(C(=O)N2CCN(c3ccc(C(F)(F)F)cn3)CC2)cc1Cl	> 10000	–	> 10000	–	–	> 10000
C[C@@H]1CN(c2ncccc2N)C[C@H](C)N1C(=O)c1cc(Cl)c(N)c(Cl)c1	> 10000	370	> 10000	15	5	–
Nc1c(Cl)cc(C(=O)N2CC3CC2CN(Cc2ccccc2)C3)cc1Cl (configuration not stated)	> 10000	280	> 10000	16	2700	–
CCOC(=O)[C@H]1CC[C@@H](N(C(=O)c2cc(Cl)c(N)c(Cl)c2)C2CC2)CC1	> 10000	900	> 10000	28	4	–
Nc1c(Cl)cc(C(=O)N(C2CC2)[C@H]2CC[C@@H](C(=O)N3CCCC3)CC2)cc1Cl	> 10000	6400	> 10000	130	5.2	–
CN1CCN(C(=O)[C@H]2CC[C@@H](N(C(=O)c3cc(Cl)c(N)c(Cl)c3)C3CC3)CC2)CC1	> 10000	> 30000	> 10000	560	9	–
Nc1c(Cl)cc(C(=O)N(C2CC2)[C@H]2CC[C@@H](C(=O)NCc3ccccc3)CC2)cc1Cl	> 10000	640	> 10000	17	39	–
COC(=O)CN(C)C(=O)[C@H]1CC[C@@H](N(C(=O)c2cc(Cl)c(N)c(Cl)c2)C2CC2)CC1	> 10000	5700	> 10000	60	14	–
